# Measurements: patent US20260191189A1, “CALCIFEROLS TO REDUCE ENVIRONMENTAL IMPACT OF RODENTICIDES” (priority 2021, published 2026)
# Experiments:
# [1] = Sprague-Dawley rats, oral administration of 3.0 mg/kg; cited from earlier work
# [2] = cited from earlier work
# rats or mice = settings: in rodenticide bait, alone or combined with warfarin; cited from earlier work
# rats and mice = settings: cited from earlier work
# rats (Rattus norvegicus) = assay: Lab test of stop feeding effect (choice feeding test); assay type: in vivo; settings: 100 mg/kg of calciferol
# Source text: A lab trial was set up to test the stop-feeding effect induced by calciferol-containing bait in the absence of an anticoagulant rodenticide. Three groups (Group control, Group a, and Group b) of ten rats (Rattus norvegicus) each were subjected to the experiment. The control group and Group a consisted of male rats; Group b consisted of female rats. The groups were kept in three connected pens (20 cm×60 cm) with shelter, saw-dust, water and feed ad libitum under standard laboratory conditions. The rats acclimatized in the test setup for ten days, with standard lab chew ad libitum.
# The test-bait formulation was a paste-bait, based on vegetable fat and cereal flour, and contained cholecalciferol at 100 mg/kg. During the choice feeding test, the rats of both treatment groups (a and b) received the cholecalciferol-containing bait and the challenge diet (standard rat chew; Höveler, Germany) ad libitum. The control group received the same bait as the treatment groups but without cholecalciferol, and the challenge diet. Consumption of bait and challenge diet was recorded in all groups daily for 14 days. The daily bait consumption results are depicted in FIG. 1.
# FIG. 1 depicts the daily consumption of bait (grams) in the laboratory study of Experiment 1, where three groups of rats (n=10 each) were given a choice between standard lab diet, and bait with or without cholecalciferol (100 mg/kg). […]
structure (smiles),measurement,setting,value
"O=c1oc2ccccc2c(O)c1C(CC(O)c1ccc(-c2ccc(Br)cc2)cc1)c1ccccc1 (single isomer, unassigned) [cis-isomer of bromadiolone]",liver half-life,[1],26.89 h
"O=c1oc2ccccc2c(O)c1[C@@H]1Cc2ccccc2[C@H](c2ccc(-c3ccc(Br)cc3)cc2)C1 (single isomer, unassigned) [cis-isomer of brodifacoum]",liver half-life,[1],120.82 h
"O=c1oc2ccccc2c(O)c1C1CCCc2ccccc21 (stereo not shown) [coumatetralyl, 4-Hydroxy-3-(1,2,3,4-tetrahydro-1-naphthyl) coumarin]",plasma half-life,[2],0.52 days
C=C1CC[C@H](O)C/C1=C/C=C1\CCC[C@]2(C)[C@@H]([C@H](C)/C=C/[C@H](C)C(C)C)CC[C@@H]12 [calciferol],minimum concentration likely to give good results in the field,rats or mice,0.1%
same,acute oral LD50,rats and mice,30 to 100 mg/kg
same,stop feeding effect,rats (Rattus norvegicus),significant stop feeding effect within two days
"O=c1oc2ccccc2c(O)c1[C@@H]1C[C@@H](c2ccc(OCc3ccc(C(F)(F)F)cc3)cc2)Cc2ccccc21 (single isomer, unassigned) [cis-isomer of flocoumafen]",liver half-life,[1],76.73 h
"O=c1oc2ccccc2c(O)c1C1CC(c2ccc(-c3ccc(Br)cc3)cc2)Cc2ccccc21 (single isomer, unassigned) [trans-isomer of brodifacoum]",liver half-life,[1],68.73 h
"O=c1oc2ccccc2c(O)c1C1CC(c2ccc(-c3ccc(Br)cc3)cc2)Cc2ccccc21 (stereo not shown) [brodifacoum, 3-[3-[4-(4-bromophenyl)phenyl]-1,2,3,4-tetrahydronaphthalen-1-yl]-4-hydroxychromen-2-one]",half-life in the liver,[2]; liver,307.4 days
same,plasma half-life,[2],91.7 days
